The record followed here is patent US9006177B2 (Advinus Therapeutics Limited, priority 2010, dated 2015).

As usually defined, the Ki is the dissociation constant of the complex between target and ligand, obtained from inhibition or displacement.

For the assay, the target named is T1, Human A2A adenosine receptor (Homo sapiens, UniProt P29274).
T1 construct: expressed in transfected cells
Put plainly: Radioligand binding for A2A adenosine receptor ([3H]-ZM-241385 competition, HEK-A2A membranes). The following applies: HEK-293 membranes, 2 nM [3H]-ZM-241385, read-out: A2A Cell based Functional Ki*.
Source text: […]

T1 sequence (P29274 whole entry): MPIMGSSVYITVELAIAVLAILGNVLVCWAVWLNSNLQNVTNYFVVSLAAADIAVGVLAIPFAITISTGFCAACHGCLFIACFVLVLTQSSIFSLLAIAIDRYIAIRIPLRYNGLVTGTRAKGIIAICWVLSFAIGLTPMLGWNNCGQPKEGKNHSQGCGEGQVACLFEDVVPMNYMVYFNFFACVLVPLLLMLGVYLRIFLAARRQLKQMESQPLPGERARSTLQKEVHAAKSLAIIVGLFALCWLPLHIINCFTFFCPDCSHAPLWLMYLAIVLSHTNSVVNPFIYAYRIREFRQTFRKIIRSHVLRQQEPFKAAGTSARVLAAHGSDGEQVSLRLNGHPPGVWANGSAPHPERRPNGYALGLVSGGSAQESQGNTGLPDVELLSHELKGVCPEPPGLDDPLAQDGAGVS

For the compound `COCCOc1ccc(N2CCN(CCn3c(=O)n(C)c4c3nc(N)n3nc(-c5ccco5)nc43)CC2)cc1` [Example A1], the Ki was 0.1 to 10 nM. For `Cc1ccc(N2CCN(CCn3c(=O)n(C)c4c3nc(N)n3nc(-c5ccco5)nc43)CC2)cc1` [Example A7, 5-Amino-8-(2-furyl)-1-methyl-3-[2-[4-(p-tolyl)piperazin-1-yl]ethyl]-[1,2,4]triazolo[5,1-f]purin-2-one], the Ki lay in the range of 0.1 to 10 nM. With `COc1ccc(N2CCN(CCn3c(=O)n(C)c4c3nc(N)n3nc(-c5ccco5)nc43)CC2)c(F)c1` [Example A9] the figure was 0.1 to 10 nM; with `Cn1c(=O)n(CCN2CCN(c3ccc(C(C)(C)O)cc3)CC2)c2nc(N)n3nc(-c4ccco4)nc3c21` [Example A13], 0.1 to 10 nM; with `COCCOc1ccc(N2CCN(CCn3c(=O)n(C)c4c3nc(N)n3nc(-c5ccco5)nc43)CC2)c(F)c1` [Example A31], 0.1 to 10 nM. As to `Cn1c(=O)n(CCN2CCN(CC3CC3)CC2)c2nc(N)n3nc(-c4ccco4)nc3c21` [Example A36, 5-Amino-3-[2-[4-(cyclopropylmethyl)piperazin-1-yl]ethyl]-8-(2-furyl)-1-methyl-[1,2,4]triazolo[5,1-f]purin-2-one], the Ki lay within 10 to 100 nM. With `CN(C)S(=O)(=O)N1CCN(CCn2c(=O)n(C)c3c2nc(N)n2nc(-c4ccco4)nc32)CC1` [Example A38, 4-[2-[5-Amino-8-(2-furyl)-1-methyl-2-oxo-[1,2,4]triazolo[5,1-f]purin-3-yl]ethyl]-N,N-dimethyl-piperazine-1-sulfonamide], the Ki was in the range of 0.1 to 10 nM. As to `Cn1c(=O)n(CCN2CCN(c3ccc(OC4CCOC4)cc3)CC2)c2nc(N)n3nc(-c4ccco4)nc3c21` (stereo not drawn) [Example A39, 5-Amino-8-(2-furyl)-1-methyl-3-[2-[4-(4-tetrahydrofuran-3-yloxyphenyl)piperazin-1-yl]ethyl]-[1,2,4]triazolo[5,1-f]purin-2-one], the Ki lay in the range of 0.1 to 10 nM. With `Cc1cnc2c(c1)CN(CCn1c(=O)n(C)c3c1nc(N)n1nc(-c4ccco4)nc31)CC2` [Example A42, 5-Amino-8-(2-furyl)-1-methyl-3-[2-(3-methyl-7,8-dihydro-5H-1,6-naphthyridin-6-yl)ethyl]-[1,2,4]triazolo[5,1-f]purin-2-one], the Ki is 0.1 to 10 nM. `COc1ccc(CCn2c(=O)n(C)c3c2nc(N)n2nc(-c4ccco4)nc32)cc1` [Example A57]: the Ki is 0.1 to 10 nM.

Turning to `Cn1c(=O)n(CCN2CCN(c3ccc(OC(F)F)cc3)CC2)c2nc(N)n3nc(-c4ccco4)nc3c21` [Example A58, 5-amino-3-[2-[4-[4-(difluoromethoxy)phenyl]piperazin-1-yl]ethyl]-8-(2-furyl)-1-methyl-[1,2,4]triazolo[5,1-f]purin-2-one], the Ki lay within 0.1 to 10 nM. In the case of `Cn1c(=O)n(CCN2CCN(C(=O)C3CC3)CC2)c2nc(N)n3nc(-c4ccco4)nc3c21` [Example A62, 5-Amino-3-[2-[4-(cyclopropanecarbonyl)piperazin-1-yl]ethyl]-8-(2-furyl)-1-methyl-[1,2,4]triazolo[5,1-f]purin-2-one] it was 0.1 to 10 nM. On to `Cn1c(=O)n(CCN2CCN(C(=O)CC3CC3)CC2)c2nc(N)n3nc(-c4ccco4)nc3c21` [Example A63, 5-Amino-3-[2-[4-(2-cyclopropylacetyl)piperazin-1-yl]ethyl]-8-(2-furyl)-1-methyl-[1,2,4]triazolo[5,1-f]purin-2-one], for which the Ki fell in the range of 10 to 100 nM. With `CCOc1ccc(N2CCN(CCn3c(=O)n(CC4CC4)c4c3nc(N)n3nc(-c5ccco5)nc43)CC2)cc1` [Example C1, 5-Amino-1-(cyclopropylmethyl)-3-[2-[4-(4-ethoxyphenyl)piperazin-1-yl]ethyl]-8-(2-furyl)-[1,2,4]triazolo[5,1-f]purin-2-one], the Ki fell in the range of 0.1 to 10 nM.

For the compound `CCn1c(=O)n(CCn2cc(-c3ccc(F)cc3F)cn2)c2nc(N)n3nc(-c4ccco4)nc3c21` [Example D3], the Ki was 0.1 to 10 nM. With `Nc1nc2c(c3nc(-c4ccco4)nn13)n(CC1CC1)c(=O)n2CCn1cc(C(=O)O)cn1` [Example E1, 1-[2-[5-Amino-1-(cyclopropylmethyl)-8-(2-furyl)-2-oxo-[1,2,4]triazolo[5,1-f]purin-3-yl]ethyl]pyrazole-4-carboxylic acid] the figure was 0.1 to 10 nM; with `CCn1c(=O)n(CCN2CCN(c3ccc(F)cc3F)CC2)c2nc(N)n3nc(-c4ccco4)nc3c21` [Example G2], 10 to 100 nM; with `Nc1nc2c(c3nc(-c4ccco4)nn13)n(CC(F)(F)F)c(=O)n2CCN1CCN(c2ccc(F)cc2F)CC1` [Example H2, 5-Amino-3-{2-[4-(2,4-difluoro-phenyl)-piperazin-1-yl]-ethyl}-8-furan-2-yl-1-(2,2,2-trifluoro-ethyl)-1,3-dihydro-[1,2,4]triazolo[5,1-f]purin-2-one], 0.1 to 10 nM.

For `COCCOc1ccc(N2CCN(CCn3c(=O)n(C)c4c3nc(N)n3nc(-c5nccs5)nc43)CC2)cc1` [Example M1, 5-Amino-3-[2-[4-[4-(2-methoxyethoxy)phenyl]piperazin-1-yl]ethyl]-1-methyl-8-thiazol-2-yl-[1,2,4]triazolo[5,1-f]purin-2-one], the inhibition constant Ki fell in the range of 0.1 to 10 nM.

As to `Cn1c(=O)n(CCN2CCN(C(=O)CC3CC3)CC2)c2nc(N)n3nc(-c4nccs4)nc3c21` [Example M3, 5-Amino-3-[2-[4-(2-cyclopropylacetyl)piperazin-1-yl]ethyl]-1-methyl-8-thiazol-2-yl-[1,2,4]triazolo[5,1-f]purin-2-one], the Ki lay within 10 to 100 nM. `Cc1cnc2c(c1)CN(CCn1c(=O)n(C)c3c1nc(N)n1nc(-c4nccs4)nc31)CC2` [Example M6, 5-Amino-1-methyl-3-[2-(3-methyl-7,8-dihydro-5H-1,6-naphthyridin-6-yl)ethyl]-8-thiazol-2-yl-[1,2,4]triazolo[5,1-f]purin-2-one]: the Ki lay in the range of 0.1 to 10 nM.
